# Source: a melting point compilation (Tetko et al.; mined from patent text by program, amines drawn as free bases though some values may be those of a salt)
row,Structure (SMILES),melting point [°C]
1,COC(=O)c1cscc1OC(C)=O,56 to 58
2,N#Cc1ccc(C=C2CCNC2=O)cc1,260
3,COP(=O)(OC)C(CCc1cc(C)nc2c(C#N)c(C)nn12)P(=O)(OC)OC,100 to 101
4,CCOC(=O)c1cc(S(N)(=O)=O)c(Cl)cc1Cl,119 to 122
5,CCCc1nc2c(N)nc3cc(OCc4cccc(C)c4)ccc3c2n1CC(C)C,200 to 203
6,CS(=O)(=O)c1ccc(-c2c(-c3ccc(F)cc3)c(OCC(=O)c3ccc(F)cc3)nn2CC(=O)c2ccc(F)cc2)cc1,194 to 196
7,COc1cc[nH]c1C=C1C(=O)Nc2cccc(C#CC(O)c3sccc3OC)c21 (racemic),213 to 216
8,CC1(c2nc(NC3CC3)nc(N3CCOCC3)n2)CC1,94 to 95
9,COC(=O)C=Cc1ccc(-n2ccn(-c3ccc(C#N)cc3)c2=O)cc1,210 to 212
10,CC(N)Cc1ccc(C(N)=O)s1 (racemic),91 to 92
11,Cc1ccc2oc(=O)c(C(=O)Oc3cc(F)ccc3[N+](=O)[O-])cc2c1,224 to 226
12,Cc1ncn(Cc2ccc(N)cc2C(F)(F)F)c1C,185 to 186
13,CC12CCC3C(CC=C4CCCCC43C)C1CC(O)C2=O (stereo not given),168 to 172
14,Cc1cccc2nc3c(c(N)c12)CCCC3,143 to 145
15,O=c1oc2c(O)c(O)ccc2c2cc(O)c(O)cc12,> 250
16,CC1(C)COC(C=Cc2ccc([N+](=O)[O-])cc2)OC1,86.5 to 88.5
17,O=c1[nH]c(=O)n(C2CC(Cl)C(CCl)O2)cc1C=CBr (stereo not given),184
18,CC[C@H](Cn1cnnn1)n1cnc2cc3c(=O)n([C@H](CC)Cn4cnnn4)nnc3cc2c1=O,80 to 81
19,CN(C)Cc1nnc(CN(C)C)n1-c1ccc(Cl)cc1C(=O)c1ccccc1,148 to 152
20,COc1ccc(CNc2nc(N)nc3c2ncn3C2CC(F)C(CO)O2)cc1 (stereo not given),194 to 195
21,COC(=O)C1CCC2(C)C(=CC(O)C3C2CCC2(C)C(O)CCC32)C1 (stereo not given),150 to 152
22,Cc1cc(CCCOc2c(C)cc(-c3noc(=O)[nH]3)cc2C)on1,194 to 195
23,CC(C)OC(=O)c1cc(-n2c(=O)[nH]c3c(c2=O)CCCC3)c(F)cc1Cl,203 to 205
24,CC(CCCC(C)(C)O)C1CCC2C3CC=C4CC(O)CCC4(C)C3CCC12C (stereo not given),168 to 175
25,COc1ccccc1Oc1c(NS(=O)(=O)c2ccc(C(C)(C)C)cc2)ncnc1OCCO,143 to 148

row,Structure (SMILES),melting point [°C]
1,CC(C)N(Cc1nc(-c2ncn3c2CN(C)C(=O)c2c(Cl)cccc2-3)no1)C(C)C,58 to 63
2,CC(=O)OC1CCC2(C)C(CCC3C2C(=O)CC2(C)C3CCC23OCCO3)C1 (stereo not given),116 to 123
3,CN(C)CC(=O)Nc1cccc(NC(=O)Nc2ccc(N(CCCl)CCCl)cc2)c1,62 to 64
4,CC(Cc1ccc(OCc2ccncc2)cc1)NCC(O)c1cccc(C(F)(F)F)c1 (stereo not given),83 to 90
5,Oc1cccc2cnsc12,185 to 187
6,COc1ccc(-c2nc(C(C)=O)cn2-c2ccc(OC)cc2)cc1,116 to 117
7,CC#CC(O)(Cn1cncn1)c1ccc(Oc2ccc(Cl)cc2)cc1C(F)(F)F (stereo not given),137
8,COc1nc(C)cnc1NS(=O)(=O)c1cccnc1-c1ccc(CC(C)C)cc1,128 to 129
9,Cc1nc2c(cc1CCCO)c(=O)c(C(=O)NCc1ccc(Cl)cc1)cn2C,176 to 177
10,Fc1cc(Br)cc(CBr)c1,41 to 43
11,CCOC(=O)c1cc2c(=O)c3cc(C(C)CO)ccc3oc2nc1N (stereo not given),255 to 256
12,CCOc1cc(OC)cc(OC(=O)CC)c1C(=O)C=Cc1ccc(OC)cc1,77.5
13,O=[N+]([O-])c1cccnc1Nc1ccc(F)cc1F,110
14,CCc1cc(Cl)c(C)c(Oc2c(C)cc(C)cc2C)n1,42 to 44
15,COc1cc(C#N)ccc1-c1cc(-c2ccc(C#N)cc2)on1,243 to 244
16,COc1cc(C)c(C(=O)CCCCCCCCCCO)c(O)c1OC,81
17,CNC(=O)C(C)(C)OCc1cc(-c2ccc(Cl)cc2)no1,93 to 94
18,Cc1cncn1Cc1ccc2ccc3c(c2c1)C(C)(C)C(=O)O3,88 to 91
19,C=CCNc1nc(NC(C)C)c2scc(C)c2n1,106 to 107
20,CCOC(=O)c1c(Br)cnn1-c1c(Cl)cccc1Cl,62 to 65
21,COCc1cc(O)cc2cc(-c3ccc(O)cc3)oc12,186 to 188
22,CNC(=O)c1ccc(F)c(F)c1,143 to 145
23,Cn1nc(Nc2cc(Cl)n[nH]c2=O)cc1CN1CCC1,140 to 141
24,CN(C)c1ccc(CN2C(=O)C3(COc4cc5c(cc43)OCCO5)c3ccccc32)nc1 (stereo not given),229 to 236
25,CC(C)(C)OC(=O)N[C@H](Cc1ccc(C(F)(F)F)cc1)[C@@H](O)c1ccc(Cl)nc1 (racemic),157 to 158

# The next lines start with the values.
row,melting point [°C],Structure (SMILES)
1,139 to 141,CC(=O)N1CCc2nc(C)nc(-c3ccc(Cl)cc3)c2C1
2,101 to 103,CC(C)(C)NC(=O)c1nn(-c2ccccc2)c2c1C1CCC2C1 (stereo not given)
3,135 to 137,O=[N+]([O-])c1ccc(OC2(c3ccccc3)CCN(Cc3ccccc3)CC2)cc1
4,118 to 119,O=C1Nc2ccccc2CO1
5,109 to 112,O=C(O)C(=O)N1CCC(Oc2ccccc2)CC1
6,173 to 174,Cc1nc(-n2cc(Cl)ccc2=O)sc1C(=O)NCc1ccccc1
7,111 to 114,CCON=C(CC)C1=C(O)CC(c2ccc(NC=O)cc2)CC1=O (stereo not given)
8,193,CCN(CC)C(=O)c1ccc(-c2nc(=O)c3ccccc3s2)nc1
9,138 to 139,COc1cc(CN(O)C(N)=O)ccc1OCc1nc(-c2ccccc2)oc1C
10,192 to 193,COC(=O)c1c(Cc2ccc(S(=O)(=O)NCCO)cc2)c(=O)c2ccc(Cl)cc2n1-c1ccccc1
11,188 to 190,CCOC(=O)c1cn(NC=O)c2c(OCc3ccccc3)c(F)c(F)cc2c1=O
12,199 to 201,O=C(Cn1c(-c2ccc(Cl)cc2)ncc(NC(=O)OCc2ccccc2)c1=O)NC(Cc1ccccc1)C(=O)C(F)(F)F (stereo not given)
13,103 to 105,COc1ccc(C(=O)CCC2OCCO2)cc1OC
14,115 to 117,COc1ccc2c(c1)C(O)C(Cc1ccc(OC)c(OC3CC4CCC3C4)c1)CO2 (stereo not given)
15,170 to 171,COCCc1cc(N2CCNCC2)n2nc(SC)c(S(=O)(=O)c3ccccc3)c2n1
16,72 to 74,CCOC(=O)NC1CCCCn2c1nc(-c1ccncn1)c(Br)c2=O (racemic)
17,62.1,CCCCCCNC(=O)c1ccc(N2N=C(C)C(=CNc3ccccc3CC)C2=O)cc1
18,133 to 134,O=C(C=Cc1ccccc1C(=O)Cl)c1ccc([N+](=O)[O-])cc1
19,124 to 128,CN(C)C1CC2c3ccccc3Cc3ccccc3N2C1 (stereo not given)
20,122 to 123,CCCCCNC(=O)[C@H](Cc1ccc(OCC(=O)O)c(-c2cc(O)no2)c1)NC(=O)[C@H](Cc1ccccc1)NC(=O)OC(C)(C)C
21,122 to 123,CCCCCCCOc1ccc(C(=O)O)cc1OCCCCCCC
22,96,CCCCCCCCCCCCCCCc1cccc(OCC(=O)O)c1
23,196 to 198,CCOC(=O)c1cn(C2CC2)c2oc(CN3CCOCC3)cc2c1=O
24,258 to 260,Cc1cc(-c2nc[nH]n2)ccc1-c1cnc2[nH]c(=O)n(CCC3CCOCC3)c2n1
25,187 to 188,COc1ccc(C(=O)Nc2ccccc2)cc1Nc1ccc(C)cc1

row,melting point [°C],Structure (SMILES)
1,126 to 127,COC(=O)c1cc2cc(OCc3cccnc3)ccc2s1
2,72.5 to 73.5,COC(=O)C(CCn1c(Cl)ccc1C(=O)c1ccc(Cl)cc1)C(=O)OC
3,217 to 218,O=C(O)c1cc(=O)c2cc3c(c(CC(O)CO)c2o1)CCCC3 (stereo not given)
4,147 to 148,"CNC(=O)NS(=O)(=O)c1cc2c(cc1OC)OCCC2CNC(=O)c1cc(Cl)ccc1OC (single isomer, unassigned; (+))"
5,105 to 107,COC(=O)C[C@H]1CC[C@H](n2nc(-c3c(-c4ccccc4)nn4ccccc34)ccc2=O)C1 (relative stereo)
6,144 to 146,Clc1nc(Cl)c(-c2ccccc2)c(-c2ccccc2)n1
7,218,CCCC1=C(C(=O)OCC)C(c2ccccc2[N+](=O)[O-])c2c[nH]nc2N1 (stereo not given)
8,50.5 to 52.5,O=C1CCCN1CCc1ccccc1
9,67 to 70,COc1ccccc1NC(=O)c1ccc(COC2CCCCO2)cc1 (stereo not given)
10,173 to 174,CCOCc1nc2c(N)nc3ccccc3c2n1CC1CCN(C)O1 (stereo not given)
11,113 to 115,O=C(O)c1ccccc1OC1CCOC1=O (stereo not given)
12,129 to 130,COC(=O)c1ccc(CCC(O)CCc2ccc(C(=O)OC)cc2)cc1
13,82 to 84,CCC[C@H](NC(=O)OCc1ccccc1)C(=O)C(N)P(=O)(OC)OC (stereo not given in full)
14,184 to 186,COC1CC2(C)C(CCC3C4CC(C)=C(C(C)=O)C4(C)CC(=O)C32)CC1O (stereo not given)
15,178 to 179,COc1cc(OCc2ccccn2)ccc1/C=C/C(=O)CC(=O)/C=C/c1cc2ccccc2[nH]1
16,96 to 98,CC1(C)CC(c2ccccn2)c2cc(C(N)=O)ccc2O1 (stereo not given)
17,181 to 182,CC(CC(=O)O)C(=O)c1ccc(-n2ccnc2)cc1 (stereo not given)
18,< 35,CN(C)CCN(C(=O)OC(C)(C)C)C1=NCC(=O)N(C)c2ccccc21
19,65 to 66.5,C#CC(CCCCC)OC(c1ccccc1)(c1ccccc1)c1ccccc1 (stereo not given)
20,115 to 118,CCCCOC(=O)Nc1nc(C(=NOC2CCCC2)C(=O)OC)ns1
21,97 to 98,CC1(C)c2cc(OS(C)(=O)=O)ccc2OC1N1CCCCC1 (stereo not given)
22,39 to 41,COC(=O)CCCCNC(=O)C(CS)Cc1ccccc1 (stereo not given)
23,32,CC(C)(C)OC(=O)Nc1cc(OCC2COC(C)(C)O2)c(C#Cc2ccccc2)cc1[N+](=O)[O-] (racemic)
24,193 to 195,COc1cnc(-c2cccn3nc(Nc4ccc(C5CCN(C(=O)OC(C)(C)C)CC5)cc4)nc23)cn1
25,188 to 191,COc1ccc(S(=O)(=O)N2Cc3ccccc3N(C(=O)COc3ccccc3)CC2C(=O)O)cc1 (stereo not given)
